# According to patent publication US20160031985A1, “CHARGE-ENGINEERED ANTIBODIES OR COMPOSITIONS OF PENETRATION-ENHANCED TARGETING PROTEINS AND METHODS OF USE” (PERMEON BIOLOGICS, INC., priority 2013, published 2016):
# B1: +2GFP-C6.5: fusion of +2GFP and C6.5; a or b variant not stated (protein)
# scFv: QVQLLQSGAELKKPGESLKISCKGSGYSFTSYWIAWVRQMPGKGLEYMGLIYPGDSDTKYSPSFQGQVTISVDKSVSTAYLQWSSLKPSDSAVYFCARHDVGYCSSSNCAKWPEYFQHWGQGTLVTVSSGGGGSGGGGSGGGGSQSVLTQPPSVSAAPGQKVTISCSGSSSNIGNNYVSWYQQLPGTAPKLLIYGHTNRPAGVPDRFSGSKSGTSASLAISGFRSEDEADYYCAAWDDSLSGWVFGGGTKLTVLGGHGHHHHHH
# modifications: left off: large carriers; small tags and cut ends
# Columns and labels:
# Type in all cases: cell-based
# SKOV-3 cells (Her2^+) = assay: Cellular uptake of GFP proteins by fluorescence microscopy; conditions: 1 μM of proteins, 1 hour
# Protocol: These images were taken to assess cellular uptake of these GFP-containing proteins by fluorescence microscopy. The images shown are an overlay of phase contrast and GFP fluorescence images.
# In addition, SKOV-3 cells (Her2) were treated with 1 μM of proteins for 1 hour, and then images were taken to assess cellular uptake of GFP proteins by fluorescence microscopy (FIG. 11A).
# AU565 (Her2^+) cells [1] = assay: Internalization of GFP proteins by flow cytometry (Example 4); conditions: 1 μM protein, 2 hours, serum free media, untreated cells 5,713
# [2] = system: MDA-MB-468 (Her2^−) cells; assay: as above; conditions: 1 μM protein, 2 hours, serum free media, untreated cells 4,064
# Protocol: MDA-MB-468 cells express an insignificant level of Her2 compared to unstained background and are considered Her2 negative (referred to as Her2), whereas AU565 cells express a high level of Her2 (referred to as Her2^+).
# The media were replaced with serum free media containing 1 μM of a protein listed below, and incubated for 2 hours. Cells were washed 3×PBS, trypsinized, fixed with 4% PFA, washed with PBS and then analyzed by flow cytometry with detection of GFP.
# Results: Flow cytometry analysis is indicative of the amount of protein internalized into the cells. FIGS. 9A and 9B show the flow cytometry data obtained for different tested samples at various conditions. The median fluorescence values obtained from the flow cytometry peak minus the median fluorescence values of untreated cells (background fluorescence) are shown in FIGS. 10A and 10B. See also Table 7. The first column indicates identifies the GFP-component of the construct used for the particular sample treatment. The second and third columns represents fluorescence in MDA-MB-468 cells following treatment with each of the GFP proteins alone (second column; examples of use of CPMs alone) or with each of the GFP-C6.5 fusion proteins (third column; examples of fusion proteins comprising a target-binding region and a CPM region). The fourth and fifth column fluorescence in AU565 cells following treatment with each of the GFP proteins alone (fourth column; examples of use of CPMs alone) or with each of the GFP-C6.5 fusion proteins (fifth column; examples of fusion proteins comprising a target-binding region and a CPM region).
# AU565 (Her2^+) cells [3] = assay: Time course of cellular uptake in mixed cell populations, flow cytometry (Example 6); conditions: 0.1 μM, untreated 6,081
# Protocol: (§1) The media were replaced with serum free media containing 0.1 μM of protein listed below and incubated for 10 minutes, 30 minutes or 4 hours. Cells were washed 3×PBS, trypsinized, stained with Her2 Antibody-APC for 0.5 hours, washed with PBS and then analyzed by flow cytometry with detection of GFP.
# [4] = system: MDA-MB-468 (Her2^−) cells; assay: as above; conditions: Her2− (MDA-MB-468), 0.1 μM, untreated 4,134
# Protocol: as §1
# AU565 (Her2^+) cells [5] = assay: Cellular uptake in mixed cell populations, flow cytometry with Her2 Ab-APC gating (Example 5); conditions: 2 h, mixed cell population; for Median Fluorescence Values, first set: AU565 cells (Her2+), untreated 6,875; for Median Fluorescence Values, second set: Her2+ (AU565), untreated 11,162
# Protocol: (§2) The media were replaced with serum free media containing indicated concentrations of protein listed below and incubated for 2 h. Cells were washed 3×PBS, trypsinized, fixed with 4% PFA, stained with Her2 Ab-APC for 0.5 hour, washed with PBS and then analyzed by flow cytometry with detection of GFP.
# (§3) The tested proteins of the first and second sets of experiments were applied to the mixed cell population for two hours.
# (§4) The above data were also plotted in FIGS. 13A-13H to show the median fluorescence value minus background fluorescence of untreated cells (background adjusted fluorescence) (Y-axis) as a function of concentration (X-axis) for each of the tested proteins in this Example. Cellular uptake of the proteins was measured by GFP fluorescence. Her2 expression level was measured by using a Her2 antibody conjugated with allophycocyanin (APC). Gating was applied to the flow cytometry data to identify Her2^low versus Her2^high populations. […] The Her2^− profiles (diamond) are indicative of the profile of charged GFP alone. The Her2^− profiles (square) are indicative of the profile of the charged GFP in combination with the target-binding region—C6.5 scFv. The data of sfGFP-C6.5 on the Her2^high cells reflects the profile of the target-binding region (C6.5) by itself.
# [6] = system: MDA-MB-468 (Her2^−) cells; assay: as above; conditions: 2 h, mixed cell population; for Median Fluorescence Values, first set: MDA-MB-468 cells (Her2−), untreated 4,303; for Median Fluorescence Values, second set: Her2− (MDA-MB-468), untreated 4,776
# Protocol: as §2, §3, §4
Molecule,binding and cellular uptake by fluorescence microscopy (SKOV-3 cells (Her2^+)),"Median fluorescence (GFP, flow cytometry) (AU565 (Her2^+) cells [1])","Median fluorescence (GFP, flow cytometry) [2]","Internalization over time (GFP fluorescence, flow cytometry) (AU565 (Her2^+) cells [3]; 10 min)","Internalization over time (GFP fluorescence, flow cytometry) (AU565 (Her2^+) cells [3]; 30 min)","Internalization over time (GFP fluorescence, flow cytometry) (AU565 (Her2^+) cells [3]; 4 h)","Internalization over time (GFP fluorescence, flow cytometry) ([4]; 10 min)","Internalization over time (GFP fluorescence, flow cytometry) ([4]; 30 min)","Internalization over time (GFP fluorescence, flow cytometry) ([4]; 4 h)","Median Fluorescence Values, first set (AU565 (Her2^+) cells [5]; 0.03 uM)","Median Fluorescence Values, first set (AU565 (Her2^+) cells [5]; 0.1 uM)","Median Fluorescence Values, first set (AU565 (Her2^+) cells [5]; 0.3 uM)","Median Fluorescence Values, first set (AU565 (Her2^+) cells [5]; 1 uM)","Median Fluorescence Values, first set ([6]; 0.03 uM)","Median Fluorescence Values, first set ([6]; 0.1 uM)","Median Fluorescence Values, first set ([6]; 0.3 uM)","Median Fluorescence Values, first set ([6]; 1 uM)","Median Fluorescence Values, second set ([6]; 0.1 uM)","Median Fluorescence Values, second set ([6]; 0.3 uM)",other results
C6.5-+15GFP: fusion with C6.5 N-terminal to +15GFP; SEQ ID NO: 16,internalized efficiently in the cells,"2,170,916","767,627","37,044","61,007","184,844","13,517","17,194","96,599","75,821","162,337","305,944","822,351","13,355","36,070","82,571","306,260",–,–,–
"sfGFP: superfolder GFP with His6 tag, not positively charged; SEQ ID NO: 10 [reference compound]",–,"5,896","5,115","5,952","6,024","5,924","3,887","4,025","4,067",–,–,–,–,–,–,–,–,"4,519","5,245","Median Fluorescence Values, second set (AU565 (Her2^+) cells [5]; 0.1 uM): 10,937; Median Fluorescence Values, second set (AU565 (Her2^+) cells [5]; 0.3 uM): 12,131"
+15GFP-C6.5: fusion of +15GFP (CPM) and anti-Her2 scFv C6.5 via (S4G)6 spacer; SEQ ID NO: 14,–,"413,838","313,629","18,606","35,981","148,261","10,665","22,262","144,923","37,663","74,673","128,374","180,065","13,012","36,343","76,116","155,734",–,–,–
"sfGFP-C6.5: control fusion of sfGFP and anti-Her2 scFv C6.5, not positively charged; SEQ ID NO: 13 [reference compound]",–,–,"5,632",–,–,–,"4,081","3,986","4,704",–,–,–,–,–,–,–,–,"4,824","4,947","Median Fluorescence Values, second set ([6]; 0.03 uM): 4,460"
B1,bound to SKOV-3 cells through Her2 but did not internalize in the cells,–,–,–,–,–,–,–,–,–,–,–,–,–,–,–,–,–,–,–
